# Data taken from paper PMC8842743 (Journal of Alzheimer's Disease Reports, 2022).
# Test system: healthy subjects
# Assay: Clinical liver safety laboratory data over time
# Type: in vivo, human
# Settings: mean (SD)
compound,measurement,setting,value
COc1cnc(C(=O)Nc2ccc(F)c([C@]34CN(c5ncc(F)cn5)C[C@H]3CSC(N)=N4)c2)cn1 [LY3202626],ALP,"1 mg daily, Day 1 predose",62.8 (7.6) U/L
same,ALT,"1 mg daily, Day 1 predose",19.0 (11.8) U/L
same,AST,"1 mg daily, Day 1 predose",18.4 (6.7) U/L
same,Albumin,"1 mg daily, Day 1 predose",43.9 (1.5) g/L
same,GGT,"1 mg daily, Day 1 predose",22.3 (14.8) U/L
same,Total Bilirubin,"1 mg daily, Day 1 predose",10.7 (2.8) umol/L
same,ALP,"1 mg daily, Day 2",62.2 (8.7) U/L
same,ALT,"1 mg daily, Day 2",18.9 (11.8) U/L
same,AST,"1 mg daily, Day 2",18.4 (6.5) U/L
same,Albumin,"1 mg daily, Day 2",43.8 (3.0) g/L
same,GGT,"1 mg daily, Day 2",21.8 (15.6) U/L
same,Total Bilirubin,"1 mg daily, Day 2",10.7 (2.6) umol/L
same,ALP,"1 mg daily, Day 3",62.3 (8.4) U/L
same,ALT,"1 mg daily, Day 3",18.7 (10.6) U/L
same,AST,"1 mg daily, Day 3",16.1 (4.7) U/L
same,Albumin,"1 mg daily, Day 3",43.1 (2.4) g/L
same,GGT,"1 mg daily, Day 3",20.9 (13.9) U/L
same,Total Bilirubin,"1 mg daily, Day 3",8.9 (2.3) umol/L
same,ALP,"1 mg daily, Day 4",64.7 (10.7) U/L
same,ALT,"1 mg daily, Day 4",20.4 (10.1) U/L
same,AST,"1 mg daily, Day 4",19.6 (5.5) U/L
same,Albumin,"1 mg daily, Day 4",44.0 (2.4) g/L
same,GGT,"1 mg daily, Day 4",21.4 (14.5) U/L
same,Total Bilirubin,"1 mg daily, Day 4",7.4 (4.2) umol/L
same,ALP,"1 mg daily, Day 6",61.0 (10.9) U/L
same,ALT,"1 mg daily, Day 6",18.9 (7.0) U/L
same,AST,"1 mg daily, Day 6",17.7 (4.8) U/L
same,Albumin,"1 mg daily, Day 6",43.1 (2.4) g/L
same,GGT,"1 mg daily, Day 6",19.4 (11.8) U/L
same,Total Bilirubin,"1 mg daily, Day 6",8.5 (4.5) umol/L
same,ALP,"1 mg daily, Day 8",62.4 (11.3) U/L
same,ALT,"1 mg daily, Day 8",20.8 (8.4) U/L
same,AST,"1 mg daily, Day 8",21.3 (13.2) U/L
same,Albumin,"1 mg daily, Day 8",44.1 (2.0) g/L
same,GGT,"1 mg daily, Day 8",18.8 (11.5) U/L
same,Total Bilirubin,"1 mg daily, Day 8",7.9 (5.0) umol/L
same,ALP,"1 mg daily, Day 10",62.6 (10.0) U/L
same,ALT,"1 mg daily, Day 10",24.6 (19.6) U/L
same,AST,"1 mg daily, Day 10",30.2 (39.0) U/L
same,Albumin,"1 mg daily, Day 10",43.3 (2.2) g/L
same,GGT,"1 mg daily, Day 10",18.7 (11.3) U/L
same,Total Bilirubin,"1 mg daily, Day 10",7.2 (2.1) umol/L
same,ALP,"1 mg daily, Day 12",62.1 (9.7) U/L
same,ALT,"1 mg daily, Day 12",24.2 (21.2) U/L
same,AST,"1 mg daily, Day 12",26.2 (29.7) U/L
same,Albumin,"1 mg daily, Day 12",43.2 (1.5) g/L
same,GGT,"1 mg daily, Day 12",18.0 (9.9) U/L
same,Total Bilirubin,"1 mg daily, Day 12",8.0 (2.8) umol/L
same,ALP,"1 mg daily, Day 14",61.3 (10.6) U/L
same,ALT,"1 mg daily, Day 14",22.8 (17.2) U/L
same,AST,"1 mg daily, Day 14",20.2 (13.1) U/L
same,Albumin,"1 mg daily, Day 14",43.6 (2.6) g/L
same,GGT,"1 mg daily, Day 14",18.0 (10.1) U/L
same,Total Bilirubin,"1 mg daily, Day 14",9.1 (2.7) umol/L
same,ALP,"1 mg daily, Day 15",59.6 (9.6) U/L
same,ALT,"1 mg daily, Day 15",20.8 (15.5) U/L
same,AST,"1 mg daily, Day 15",18.3 (9.7) U/L
same,Albumin,"1 mg daily, Day 15",42.6 (2.2) g/L
same,GGT,"1 mg daily, Day 15",18.2 (11.0) U/L
same,Total Bilirubin,"1 mg daily, Day 15",9.2 (2.5) umol/L
same,ALP,"1 mg daily, Day 17",63.9 (10.6) U/L
same,ALT,"1 mg daily, Day 17",23.2 (12.8) U/L
same,AST,"1 mg daily, Day 17",19.3 (6.0) U/L
same,Albumin,"1 mg daily, Day 17",46.0 (2.8) g/L
same,GGT,"1 mg daily, Day 17",20.1 (11.8) U/L
same,Total Bilirubin,"1 mg daily, Day 17",8.2 (4.0) umol/L
same,ALP,"6 mg daily, Day 1 predose",64.6 (16.9) U/L
same,ALT,"6 mg daily, Day 1 predose",17.6 (5.5) U/L
same,AST,"6 mg daily, Day 1 predose",18.9 (4.0) U/L
same,Albumin,"6 mg daily, Day 1 predose",45.0 (1.7) g/L
same,GGT,"6 mg daily, Day 1 predose",21.6 (10.7) U/L
same,Total Bilirubin,"6 mg daily, Day 1 predose",8.9 (3.6) umol/L
same,ALP,"6 mg daily, Day 2",66.4 (20.2) U/L
same,ALT,"6 mg daily, Day 2",17.8 (3.8) U/L
same,AST,"6 mg daily, Day 2",18.0 (3.0) U/L
same,Albumin,"6 mg daily, Day 2",45.8 (2.5) g/L
same,GGT,"6 mg daily, Day 2",21.7 (9.5) U/L
same,Total Bilirubin,"6 mg daily, Day 2",9.8 (4.5) umol/L
same,ALP,"6 mg daily, Day 3",65.8 (18.6) U/L
same,ALT,"6 mg daily, Day 3",18.9 (4.7) U/L
same,AST,"6 mg daily, Day 3",17.8 (2.9) U/L
same,Albumin,"6 mg daily, Day 3",46.3 (2.1) g/L
same,GGT,"6 mg daily, Day 3",22.3 (11.2) U/L
same,Total Bilirubin,"6 mg daily, Day 3",7.4 (3.1) umol/L
same,ALP,"6 mg daily, Day 4",67.8 (18.4) U/L
same,ALT,"6 mg daily, Day 4",20.9 (5.2) U/L
same,AST,"6 mg daily, Day 4",19.8 (4.7) U/L
same,Albumin,"6 mg daily, Day 4",47.0 (1.9) g/L
same,GGT,"6 mg daily, Day 4",24.0 (11.0) U/L
same,Total Bilirubin,"6 mg daily, Day 4",6.9 (2.4) umol/L
same,ALP,"6 mg daily, Day 6",63.9 (17.8) U/L
same,ALT,"6 mg daily, Day 6",18.9 (4.4) U/L
same,AST,"6 mg daily, Day 6",19.7 (4.9) U/L
same,Albumin,"6 mg daily, Day 6",45.3 (2.7) g/L
same,GGT,"6 mg daily, Day 6",22.0 (10.8) U/L
same,Total Bilirubin,"6 mg daily, Day 6",8.4 (4.0) umol/L
same,ALP,"6 mg daily, Day 8",64.6 (17.6) U/L
same,ALT,"6 mg daily, Day 8",18.6 (2.5) U/L
same,AST,"6 mg daily, Day 8",20.8 (6.2) U/L
